The text below walks through data of ChEMBL document CHEMBL2062480, “Semi-synthesis and anti-tumor evaluation of novel 25-hydroxyprotopanaxadiol derivatives” (Eur J Med Chem, 2012).

Test [1] is described as follows: Antiproliferative activity against human IOSE-144 cells after 48 hrs by MTT assay. It counts as cell-based. As to conditions: IOSE-144, 48 h. On the technique in general: Formazan colour is commonly taken as a measure of viable cells.
Test [2] relates to MCF7. Put plainly: Antiproliferative activity against human MCF7 cells assessed as cell viability at 30 uM after 48 hrs by MTT assay. The format is functional. As to conditions: MCF7, 48 h, read-out: Activity.
The subject of test [3] is MCF7. Put plainly: Antiproliferative activity against human MCF7 cells after 48 hrs by MTT assay. It counts as functional, cell-based. To be noted: MCF7, 48 h.
For another test, the system named is LoVo. Put plainly: Antiproliferative activity against human LoVo cells after 48 hrs by MTT assay. It counts as functional, cell-based.
A further test deals with A549. Put plainly: Antiproliferative activity against human A549 cells after 48 hrs by MTT assay. It counts as functional, cell-based. To be noted: A549, 48 h.

As for `CCCC(=O)O[C@@H]1C[C@@H]2[C@@]3(C)CC[C@H](O)C(C)(C)[C@@H]3CC[C@@]2(C)[C@]2(C)CC[C@H]([C@](C)(O)CCCC(C)(C)O)[C@@H]12`, the IC50 was above 100 µM in test [1], 32.8 µM in the test with MCF7 [3], 38.3 µM in the test on LoVo and 25.5 µM in the test with A549. In addition, the viability at 30 µM in the test with MCF7 [2] was 28.5%.

Regarding `CC(C)(O)CCC[C@@](C)(O)[C@H]1CC[C@]2(C)[C@@H]1[C@H](O)C[C@@H]1[C@@]3(C)CC[C@H](O)C(C)(C)[C@@H]3CC[C@]12C`, the half-maximal inhibitory concentration (IC50) in test [1] was above 100 µM; in the test with MCF7 [3], 48.9 µM; in the test with LoVo it was 45.2 µM; in the test on A549, 34.2 µM. Also, the viability at 30 µM in the test with MCF7 [2] is 66.3%.

For `CC(=O)O[C@@H]1C[C@@H]2[C@@]3(C)CC[C@H](O)C(C)(C)[C@@H]3CC[C@@]2(C)[C@]2(C)CC[C@H]([C@](C)(O)CCCC(C)(C)O)[C@@H]12`, the IC50 was above 100 µM in test [1], 15.1 µM with MCF7 [3], 37.5 µM with LoVo and 10.4 µM in the test on A549. Moreover, in the test with MCF7 [2], the viability at 30 µM stood at 13.2%.

Turning to `CCC(=O)O[C@@H]1C[C@@H]2[C@@]3(C)CC[C@H](O)C(C)(C)[C@@H]3CC[C@@]2(C)[C@]2(C)CC[C@H]([C@](C)(O)CCCC(C)(C)O)[C@@H]12`, the IC50 was above 100 µM in test [1], 10.4 µM in the test with MCF7 [3], 40.3 µM with LoVo and 17.7 µM in the test on A549. For the same compound, the viability at 30 µM in the test on MCF7 [2] was determined as 17.1%.

The IC50 is the point on the concentration scale where inhibition reaches its midpoint.
